Test results taken from patent publication US7612065B2, “Inhibitors of c-JUN N-terminal kinases (JNK)” (priority 2007, dated 2009).

Molecular target: T1, JNK3 (Homo sapiens, UniProt P53779)
T1 construct: One such construct encodes amino acid residues Ser40-Glu402 of JNK3α1 and is preceded by Met and Gly residues; Met-Gly (initiation methionine plus glycine added for the NcoI site); made in house; host or cells: E. coli BL21 (DE3)
Test: JNK inhibition assay: spectrophotometric coupled-enzyme assay with activated JNK3
Format: biochemical
Conditions: activated JNK3 10 nM, 10 μM ATP, 200 μM EGF receptor peptide, 30° C., competitive inhibition model
How it was run: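 Activated (doubly phosphorylated, MKK7(DD)-activated) human JNK3, 10 nM, preincubated 10 min at 30 °C with inhibitor in 0.1 M HEPES pH 7.5, 10 mM MgCl2, 200 μM EGF receptor peptide, PK/LDH-coupled. Started with 10 μM ATP; A340 decrease followed at 30 °C. Ki from competitive inhibition model fit.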

T1 sequence (P53779 40-402): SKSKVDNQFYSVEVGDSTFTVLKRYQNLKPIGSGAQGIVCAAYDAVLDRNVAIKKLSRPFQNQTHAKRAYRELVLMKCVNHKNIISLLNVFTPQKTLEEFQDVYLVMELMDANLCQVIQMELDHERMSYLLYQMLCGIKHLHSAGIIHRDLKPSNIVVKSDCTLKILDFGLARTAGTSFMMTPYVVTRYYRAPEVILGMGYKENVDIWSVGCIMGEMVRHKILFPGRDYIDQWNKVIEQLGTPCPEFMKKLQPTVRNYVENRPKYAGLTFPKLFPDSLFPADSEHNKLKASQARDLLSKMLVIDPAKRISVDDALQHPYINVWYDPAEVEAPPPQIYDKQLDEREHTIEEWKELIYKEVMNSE

| Compound | Ki [nM] |
| --- | --- |
| O=C(Nc1ccc2c(c1)N(Cc1cc(F)cc3c1OCOC3)C(=O)/C2=N\O)N1CCOCC1 [Compound 269] | < 1000 |
| O=C1/C(=N\O)c2cc(Br)ccc2N1Cc1cc(F)cc2c1OCOC2 [Compound 278] | < 1000 |
| CC(=O)Nc1cccc(-c2ccc3c(c2)/C(=N/O)C(=O)N3Cc2cc(F)cc3c2OCOC3)c1 [Compound 279] | ≥ 1000 |
| O=C1/C(=N\O)c2cc(-c3cccnc3)ccc2N1Cc1cc(F)cc2c1OCOC2 [Compound 281] | ≥ 1000 |
| O=C1/C(=N\O)c2cc(-c3ccc(CO)cc3)ccc2N1Cc1cc(F)cc2c1OCOC2 [Compound 283] | ≥ 1000 |
| Nc1ccc2c(c1)/C(=N/O)C(=O)N2Cc1cc(F)cc2c1OCOC2 [Compound 285] | ≥ 1000 |
| O=C(NCCN1CCCC1)c1ccc2c(c1)N(Cc1cc(F)cc3c1OCOC3)C(=O)/C2=N\O [Compound 289] | ≥ 1000 |
| O=C(NCCc1c[nH]cn1)c1ccc2c(c1)N(Cc1cc(F)cc3c1OCOC3)C(=O)/C2=N\O [Compound 292] | ≥ 1000 |
| CCOC(=O)CCNC(=O)c1ccc2c(c1)N(Cc1cc(F)cc3c1OCOC3)C(=O)/C2=N\O [Compound 296] | ≥ 1000 |
| O=C1/C(=N\O)c2cc(NCc3ccccc3)ccc2N1Cc1cc(F)cc2c1OCOC2 [Compound 300] | ≥ 1000 |
| Cc1cccc2c1/C(=N/O)C(=O)N2Cc1cc(F)cc2c1OCOC2 [Compound 301] | < 1000 |
| O=C(c1ccccc1)c1ccc2c(c1)/C(=N/O)C(=O)N2Cc1cc(F)cc2c1OCOC2 [Compound 302] | ≥ 1000 |
| O=C1/C(=N\O)c2cc(NCc3ccc(O)cc3)ccc2N1Cc1cc(F)cc2c1OCOC2 [Compound 304] | ≥ 1000 |
| COc1ccc(CNc2ccc3c(c2)/C(=N/O)C(=O)N3Cc2cc(F)cc3c2OCOC3)cc1O [Compound 305] | ≥ 1000 |
| CC(C)CCN(CCC(C)C)c1ccc2c(c1)/C(=N/O)C(=O)N2Cc1cc(F)cc2c1OCOC2 [Compound 308] | ≥ 1000 |
| O=C1/C(=N\O)c2ccc(-c3ccc(F)cc3F)cc2N1Cc1cc(F)cc2c1OCOC2 [Compound 313] | < 1000 |
| O=C1/C(=N\O)c2ccc(-c3ccccc3C(F)(F)F)cc2N1Cc1cc(F)cc2c1OCOC2 [Compound 314] | ≥ 1000 |

| Compound | Ki [nM] |
| --- | --- |
| O=Cc1ccccc1-c1ccc2c(c1)N(Cc1cc(F)cc3c1OCOC3)C(=O)/C2=N\O [Compound 315] | < 1000 |
| O=C(Nc1ccc2c(c1)N(Cc1cc(F)cc3c1OCOC3)C(=O)/C2=N/O)c1cccc(Oc2ccccc2)c1 [Compound 320] | ≥ 1000 |
| COc1ccc(C(=O)Nc2ccc3c(c2)N(Cc2cc(F)cc4c2OCOC4)C(=O)/C3=N/O)cc1OCc1ccccc1 [Compound 321] | < 1000 |
| CCc1cccc2c1/C(=N/O)C(=O)N2Cc1cc(F)cc2c1OCOC2 [Compound 325] | ≥ 1000 |
| Nc1cccc(-c2ccc3c(c2)N(Cc2cc(F)cc4c2OCOC4)C(=O)/C3=N\O)c1 [Compound 327] | < 1000 |
| CC(=O)c1ccc(-c2ccc3c(c2)N(Cc2cc(F)cc4c2OCOC4)C(=O)/C3=N\O)cc1 [Compound 330] | < 1000 |
| COc1ccc(-c2ccc3c(c2)N(Cc2cc(F)cc4c2OCOC4)C(=O)/C3=N\O)cc1OC [Compound 332] | < 1000 |
| Cc1ccc(-c2ccc3c(c2)N(Cc2cc(F)cc4c2OCOC4)C(=O)/C3=N\O)cc1 [Compound 333] | ≥ 1000 |
| O=C(O)CCc1ccc(-c2ccc3c(c2)N(Cc2cc(F)cc4c2OCOC4)C(=O)/C3=N\O)cc1 [Compound 335] | < 1000 |
| CC(C)=Cc1cccc2c1/C(=N/O)C(=O)N2Cc1cc(F)cc2c1OCOC2 [Compound 336] | < 1000 |
| CCCCc1cccc2c1/C(=N/O)C(=O)N2Cc1cc(F)cc2c1OCOC2 [Compound 337] | < 1000 |
| COc1ccc(C(=O)Nc2ccc3c(c2)N(Cc2cc(F)cc4c2OCOC4)C(=O)/C3=N\O)cc1 [Compound 338] | ≥ 1000 |
| O=C(Nc1ccc2c(c1)N(Cc1cc(F)cc3c1OCOC3)C(=O)/C2=N\O)c1ccccc1Br [Compound 343] | < 1000 |
| O=C(Nc1ccc2c(c1)N(Cc1cc(F)cc3c1OCOC3)C(=O)/C2=N\O)C1CCCCC1 [Compound 346] | ≥ 1000 |
| CC(=O)NCC(=O)Nc1ccc2c(c1)N(Cc1cc(F)cc3c1OCOC3)C(=O)/C2=N\O [Compound 348] | ≥ 1000 |
| Cc1ccc(C(=O)c2ccc3c(c2)/C(=N/O)C(=O)N3Cc2cc(F)cc3c2OCOC3)cc1 [Compound 349] | ≥ 1000 |
| Cc1cc2c(cc1C(=O)c1ccccc1)/C(=N/O)C(=O)N2Cc1cc(F)cc2c1OCOC2 [Compound 351] | ≥ 1000 |

The next lines start with the values.

| Ki [nM] | Compound |
| --- | --- |
| ≥ 1000 | Nc1cccc(-c2ccc3c(c2)/C(=N/O)C(=O)N3Cc2cc(F)cc3c2OCOC3)c1 [Compound 280] |
| ≥ 1000 | Nc1cccc2c1/C(=N/O)C(=O)N2Cc1cc(F)cc2c1OCOC2 [Compound 282] |
| ≥ 1000 | O=C1/C(=N\O)c2cc([N+](=O)[O-])ccc2N1Cc1cc(F)cc2c1OCOC2 [Compound 284] |
| < 1000 | O=C1/C(=N\O)c2c(F)cc(F)cc2N1Cc1cc(F)cc2c1OCOC2 [Compound 286] |
| ≥ 1000 | CC(C)CNC(=O)c1ccc2c(c1)N(Cc1cc(F)cc3c1OCOC3)C(=O)/C2=N\O [Compound 287] |
| ≥ 1000 | COC(=O)CNC(=O)c1ccc2c(c1)N(Cc1cc(F)cc3c1OCOC3)C(=O)/C2=N\O [Compound 288] |
| ≥ 1000 | O=C(NCC1CCCO1)c1ccc2c(c1)N(Cc1cc(F)cc3c1OCOC3)C(=O)/C2=N\O (centres unmarked) [Compound 290] |
| ≥ 1000 | CCNC(=O)c1ccc2c(c1)N(Cc1cc(F)cc3c1OCOC3)C(=O)/C2=N\O [Compound 291] |
| ≥ 1000 | CCCNC(=O)c1ccc2c(c1)N(Cc1cc(F)cc3c1OCOC3)C(=O)/C2=N\O [Compound 293] |
| ≥ 1000 | CC(C)CCNC(=O)c1ccc2c(c1)N(Cc1cc(F)cc3c1OCOC3)C(=O)/C2=N\O [Compound 294] |
| ≥ 1000 | CN(C)CCNC(=O)c1ccc2c(c1)N(Cc1cc(F)cc3c1OCOC3)C(=O)/C2=N\O [Compound 295] |
| ≥ 1000 | CN1CCCC1CCNC(=O)c1ccc2c(c1)N(Cc1cc(F)cc3c1OCOC3)C(=O)/C2=N\O (centres unmarked) [Compound 297] |
| ≥ 1000 | O=C(NCCN1CCCCC1)c1ccc2c(c1)N(Cc1cc(F)cc3c1OCOC3)C(=O)/C2=N\O [Compound 298] |
| ≥ 1000 | C[Si](C)(C)C#Cc1cccc2c1/C(=N/O)C(=O)N2Cc1cc(F)cc2c1OCOC2 [Compound 299] |
| ≥ 1000 | O=C(O)c1ccc(CNc2ccc3c(c2)/C(=N/O)C(=O)N3Cc2cc(F)cc3c2OCOC3)cc1 [Compound 303] |
| ≥ 1000 | O=C1/C(=N\O)c2c(CCc3ccccc3)cccc2N1Cc1cc(F)cc2c1OCOC2 [Compound 306] |
| < 1000 | C=Cc1cccc2c1/C(=N/O)C(=O)N2Cc1cc(F)cc2c1OCOC2 [Compound 307] |
| ≥ 1000 | O=C(O)CCCN(CCCC(=O)O)c1ccc2c(c1)/C(=N/O)C(=O)N2Cc1cc(F)cc2c1OCOC2 [Compound 309] |
| ≥ 1000 | O=C1/C(=N\O)c2cc(N(CC3CCCCC3)CC3CCCCC3)ccc2N1Cc1cc(F)cc2c1OCOC2 [Compound 310] |
| ≥ 1000 | CC(C)CNc1ccc2c(c1)/C(=N/O)C(=O)N2Cc1cc(F)cc2c1OCOC2 [Compound 311] |

| Ki [nM] | Compound |
| --- | --- |
| ≥ 1000 | O=C1/C(=N\O)c2cc(N(CCCc3ccccc3)CCCc3ccccc3)ccc2N1Cc1cc(F)cc2c1OCOC2 [Compound 312] |
| < 1000 | Cc1ccccc1-c1ccc2c(c1)N(Cc1cc(F)cc3c1OCOC3)C(=O)/C2=N\O [Compound 316] |
| < 1000 | CC(=O)Nc1cccc(-c2ccc3c(c2)N(Cc2cc(F)cc4c2OCOC4)C(=O)/C3=N\O)c1 [Compound 317] |
| < 1000 | O=C1/C(=N\O)c2ccc(-c3cc4ccccc4o3)cc2N1Cc1cc(F)cc2c1OCOC2 [Compound 318] |
| < 1000 | Cc1cc(F)ccc1C(=O)c1ccc2c(c1)/C(=N/O)C(=O)N2Cc1cc(F)cc2c1OCOC2 [Compound 319] |
| ≥ 1000 | CC(=O)OC(C(=O)Nc1ccc2c(c1)N(Cc1cc(F)cc3c1OCOC3)C(=O)/C2=N/O)c1ccccc1 (centres unmarked) [Compound 322] |
| < 1000 | CCC(C(=O)Nc1ccc2c(c1)N(Cc1cc(F)cc3c1OCOC3)C(=O)/C2=N/O)c1ccccc1 (centres unmarked) [Compound 323] |
| ≥ 1000 | COc1ccc(CC(=O)Nc2ccc3c(c2)N(Cc2cc(F)cc4c2OCOC4)C(=O)/C3=N/O)cc1OC [Compound 324] |
| < 1000 | C/C=C/c1cccc2c1/C(=N/O)C(=O)N2Cc1cc(F)cc2c1OCOC2 [Compound 326] |
| ≥ 1000 | O=C(c1ccc(F)cc1)c1ccc2c(c1)/C(=N/O)C(=O)N2Cc1cc(F)cc2c1OCOC2 [Compound 328] |
| ≥ 1000 | COc1ccc(-c2ccc3c(c2)N(Cc2cc(F)cc4c2OCOC4)C(=O)/C3=N\O)cc1 [Compound 329] |
| < 1000 | Cc1ccc(-c2ccc3c(c2)N(Cc2cc(F)cc4c2OCOC4)C(=O)/C3=N\O)cc1C [Compound 331] |
| ≥ 1000 | CC(C)c1ccc(-c2ccc3c(c2)N(Cc2cc(F)cc4c2OCOC4)C(=O)/C3=N\O)cc1 [Compound 334] |
| ≥ 1000 | COc1ccc(C(=O)Nc2ccc3c(c2)N(Cc2cc(F)cc4c2OCOC4)C(=O)/C3=N\O)cc1OC [Compound 339] |
| ≥ 1000 | COc1cccc(OC)c1C(=O)Nc1ccc2c(c1)N(Cc1cc(F)cc3c1OCOC3)C(=O)/C2=N\O [Compound 340] |
| < 1000 | O=C(Nc1ccc2c(c1)N(Cc1cc(F)cc3c1OCOC3)C(=O)/C2=N\O)c1ccccc1F [Compound 341] |
| < 1000 | O=C(Nc1ccc2c(c1)N(Cc1cc(F)cc3c1OCOC3)C(=O)/C2=N\O)c1ccccc1Cl [Compound 342] |
| < 1000 | CCC(=O)Nc1ccc2c(c1)N(Cc1cc(F)cc3c1OCOC3)C(=O)/C2=N\O [Compound 344] |
| < 1000 | CC(C)CC(=O)Nc1ccc2c(c1)N(Cc1cc(F)cc3c1OCOC3)C(=O)/C2=N\O [Compound 345] |
| ≥ 1000 | CC(=O)NCC(=O)NCC(=O)Nc1ccc2c(c1)N(Cc1cc(F)cc3c1OCOC3)C(=O)/C2=N\O [Compound 347] |
